Reference: patent publication US9839618B2, “Compositions and methods relating to proliferative diseases” (The Penn State Research Foundation, priority 2010, dated 2017)
Where two headings read alike, the source gives them in different places.

What was measured:
[1] = test system: UACC 903 metastatic melanoma cells; experiment: MTS assay viability IC50, UACC 903; format: cell-based, human; details: for IC50: Homo sapiens, UACC-903; for Selectivity ratio, fibroblasts versus UACC903: activity against fibroblasts FF2441 compared to melanoma cells
Description: (§1) The efficacy of leelamine to kill other cancer types is measured and the IC50 for cell lines derived from carcinomas of breast, lung, prostate, connective tissue, pancreas and colon determined. The MTS assay as described in Sharma, A. et al., Clin Cancer Res, 2009, 15:1674-85; and Madhunapantula, S. V. et al., Mol Cancer Ther, 2008, 7:1297-308 is used to establish the IC50 at 24, 48 and 72 hours of leelamine treatment for normal human epidermal melanocytes (FOM103), normal skin fibroblast cells (FF2441), normal skin keratinocytes (HFK) and compared to melanocytic lesion cells from the radial-, vertical- and metastatic melanoma stages. 5×10^3 cells per well in 100 μL of media are plated and grown in a 96-well plate for 48 to 72 hours and treated with either DMSO vehicle control or 0.62 to 40 μmol/L of leelamine for 24, 48 or 72 hours. IC50 values for each compound in μmol/L for respective cell lines are measured from three independent experiments using GraphPad Prism version 4.01 (GraphPad Software, La Jolla, Calif.). Leelamine is found to be not toxic to normal cells and effective to kill melanoma cells as well as non-melanoma cancer cells as shown in Table 1 in FIG. 20. Leelamine is 3- to 4-fold more specific at killing metastatic melanoma than normal cells, supporting cancer therapeutic utility at concentrations<2 μmol/L.
(§2) 5×10^3 cells per well in 100 μL of media are plated and grown in a 96-well plate for 48 to 72 hours and treated with either DMSO vehicle control or 0.62 to 40 μmol/L of leelamine for 24, 48 or 72 hours. IC50 values for each compound in μmol/L for respective cell lines are measured from three independent experiments using GraphPad Prism version 4.01 (GraphPad Software, La Jolla, Calif.).
(§3) The IC50 and effect of liposomal preparations of leelamine on viability of normal human melanocytes, fibroblasts and melanoma cells UACC 903 and 1205 Lu are measured using the MTS assay (Promega, Madison, Wis.). Empty liposomes or liposomes containing abietic acid are used as controls. 5×10^3 cells per well in 100 μL of media are plated and grown in a 96-well plate for 48 or 72 hours for melanoma and normal cell lines, respectively. The cells are then treated with 0.62 to 40 μmol/L of liposome alone, a liposomal preparation of abietic acid, or with Nanolipolee-007 for 24 hours. IC50 values for each liposome in μmol/L for respective cell lines are measured from three independent experiments using GraphPad Prism version 4.01 (GraphPad Software, La Jolla, Calif.). Nanolipolee-007 retains the growth inhibitory activity of leelamine in killing melanoma cells in culture and specifically kills melanoma cells compared to normal cells, FIG. 24.
(§4) Dehydroabietylamine, its N-substituted derivatives and the corresponding dihydroabietylamine and its N-substituted derivatives are tested for their capability to inhibit cell growth of cancer cell lines, including melanoma (UACC 903, 1205Lu), breast (MCF-7), fibrosarcoma (HT-1080), colon (Caco-2), and prostate (PC-3) cancer cell lines. Viability and IC50 of normal human fibroblasts and cell lines from melanoma and other malignancies following treatment with all the agents are measured using the MTS assay (Promega, Madison, Wis.). Human fibroblast FF2441 cells, metastatic melanoma cell lines 1205 Lu and UACC 903 as well as cancer cell lines representing sarcoma (HT-1080), prostate (PC-3, LNCaP), breast (MCF-7) and lung (A-549) are maintained in DMEM (Invitrogen, Carlsbad, Calif.) supplemented with 10% FBS (Hyclone, Logan, Utah) in a 5% CO2 atmosphere, humidified 37° C. incubator. 5×10^3 cells per well in 100 μL of media are plated and grown in a 96-well plate for 48 to 72 h and treated with either DMSO vehicle control or 0.62 to 40 μmol/L for 24, 48 or 72 h. IC50 values for each compound in […] for respective cell lines are measured from three independent experiments using GraphPad Prism version 4.01 (GraphPad Software, La Jolla, Calif.). […]

[2] = test system: 1205 Lu metastatic melanoma cells; experiment: MTS assay viability IC50, 1205 Lu; format: cell-based, human; details: for IC50: Homo sapiens, 1205Lu; for Selectivity ratio, fibroblasts versus 1205Lu: activity against fibroblasts FF2441 compared to melanoma cells
Description: as §1, §2, §3, §4

[3] = test system: Prostate (PC-3) cancer cell line; experiment: MTS assay viability IC50, PC-3; format: cell-based; details: Table 5
Description: (§5) Dehydroabietylamine, its N-substituted derivatives and the corresponding dihydroabietylamine and its N-substituted derivatives are tested for their capability to inhibit cell growth of cancer cell lines, including melanoma (UACC 903, 1205Lu), breast (MCF-7), fibrosarcoma (HT-1080), colon (Caco-2), and prostate (PC-3) cancer cell lines. Viability and IC50 of normal human fibroblasts and cell lines from melanoma and other malignancies following treatment with all the agents are measured using the MTS assay (Promega, Madison, Wis.). Human fibroblast FF2441 cells, metastatic melanoma cell lines 1205 Lu and UACC 903 as well as cancer cell lines representing sarcoma (HT-1080), prostate (PC-3, LNCaP), breast (MCF-7) and lung (A-549) are maintained in DMEM (Invitrogen, Carlsbad, Calif.) supplemented with 10% FBS (Hyclone, Logan, Utah) in a 5% CO2 atmosphere, humidified 37° C. incubator. 5×10^3 cells per well in 100 μL of media are plated and grown in a 96-well plate for 48 to 72 h and treated with either DMSO vehicle control or 0.62 to 40 μmol/L for 24, 48 or 72 h. IC50 values for each compound in […] for respective cell lines are measured from three independent experiments using GraphPad Prism version 4.01 (GraphPad Software, La Jolla, Calif.). FIG. 52 is a graph showing IC50 values for leelamine and compounds 4a, 4b and 5a in treated fibroblasts (FF2441) compared to melanoma cells. Selectivity ratio here is defined as ratio of activity against fibroblasts compared to activity against melanoma cells. Leelamine is relatively selective with a ratio of >6 and >4 for UACC903 and 1205Lu melanoma cells. The selectivity ratio of compound 4a is ˜4 and ˜3 for UACC903 and 1205Lu and for compound 4b is ˜4 for both cell lines. The selectivity ratio of compound 5a is ˜4 for UACC903 and >2 for 1205Lu cells.

[4] = test system: Prostate (LnCap) cancer cell line; experiment: MTS assay viability IC50, LnCap; format: cell-based; details: Homo sapiens, Table 5
Description: as §5

[5] = Table 4, read-out: IC50 Metastatic Melanoma Cell line UACC903
[6] = Table 5, read-out: IC50 Melanoma (UACC903)
[7] = Table 6, read-out: IC50 Metastatic melanoma UACC 903
[8] = Table 7, read-out: IC50 (UACC903)
[9] = Table 4, read-out: IC50 Metastatic Melanoma Cell line 1205Lu
[10] = Table 6, read-out: IC50 Metastatic melanoma 1205 Lu

## CC(C)c1ccc2c(c1)CCC1[C@](C)(CNC(=O)C(F)(F)F)CCC[C@]21C (stereo partly drawn) [Compound 5a, N-{[(1R,4aS)-1,4a-dimethyl-7-(propan-2-yl)-1,2,3,4,4a,9,10,10a-octahydrophenanthren-1-yl]methyl}-2,2,2-trifluoroacetamide]
[1]; [5]
  IC50: 1280 ± 50 nM
[1]; [6]
  IC50: 1280 ± 50 nM
[1]; [7]
  IC50: 1280 ± 50 nM
[1]; [8]
  IC50: 1280 nM
[1]
  Selectivity ratio, fibroblasts versus UACC903: ~4
[2]; [9]
  IC50: 2080 ± 50 nM
[2]; [10]
  IC50: 2080 ± 50 nM
[2]
  Selectivity ratio, fibroblasts versus 1205Lu: > 2
[3]
  IC50: 4660 ± 550 nM
[4]
  IC50: 8630 ± 970 nM

## CC(C)c1ccc2c(c1)CCC1[C@](C)(CN)CCC[C@]21C (stereo partly drawn) [Leelamine, [(1R,4aS)-1,4a-dimethyl-7-(propan-2-yl)-1,2,3,4,4a,9,10,10a-octahydrophenanthren-1-yl]methanamine]
[1]; [6]
  IC50: 1350 ± 500 nM
[1]; [7]
  IC50: 1350 ± 50 nM
[1]; [8]
  IC50: 1350 nM
[1]
  Selectivity ratio, fibroblasts versus UACC903: > 6
[2]; [10]
  IC50: 1930 ± 160 nM
[2]
  Selectivity ratio, fibroblasts versus 1205Lu: > 4
[3]
  IC50: 4850 ± 1090 nM
[4]
  IC50: 10900 ± 2110 nM

## CC(C)C1=CC2=CCC3[C@](C)(CN)CCC[C@]3(C)C2CC1 (stereo partly drawn) [Compound 4a, {[(1R,4aR)-1,4a-dimethyl-7-(propan-2-yl)-1,2,3,4,4a,4b,5,6,10,10a-decahydrophenanthren-1-yl]methyl}amine]
[1]; Example 8, read-out: IC50 UACC 903
  IC50: 2130 nM
[1]; [5]
  IC50: 2130 ± 190 nM
[1]; [6]
  IC50: 2360 ± 250 nM
[1]; [7]
  IC50: 2130 ± 190 nM
[1]; [8]
  IC50: 2130 nM
[1]
  Selectivity ratio, fibroblasts versus UACC903: ~4
[2]; Example 8, read-out: IC50 1205Lu
  IC50: 2870 nM
[2]; [9]
  IC50: 2870 ± 70 nM
[2]; [10]
  IC50: 2870 ± 70 nM
[2]
  Selectivity ratio, fibroblasts versus 1205Lu: ~3
[3]
  IC50: 9730 ± 1040 nM
[4]
  IC50: 14800 ± 1990 nM

## CC(C)C1=CC2=CCC3[C@](C)(CCC[C@@]3(C)C(=O)O)C2CC1 (stereo partly drawn) [Abietic acid, (1R,4aR)-1,4a-dimethyl-7-(propan-2-yl)-1,2,3,4,4a,4b,5,6,10,10a-decahydrophenanthrene-1-carboxylic acid, reference compound]
[1]; [5]
  IC50: > 100000 nM
[1]; [6]
  IC50: > 100000 nM
[1]; [7]
  IC50: > 100000 nM
[1]; [8]
  IC50: > 100000 nM
[2]; [9]
  IC50: > 100000 nM
[2]; [10]
  IC50: > 100000 nM
[3]
  IC50: > 100000 nM
[4]
  IC50: > 100000 nM
